Source: patent US6875757B2, “LPA receptor agonists and antagonists and methods of use” (University of Tennessee Research Foundation, priority 2000, dated 2005)

Assays:
human Edg-2 = molecular target: T1, human Edg-2 (Homo sapiens, UniProt Q92633); assay: Ca2+ responses (Fura-2) in RH7777 cells expressing Edg-2; type: cell-based
T1 construct: expressed in transfected cells
Method: (§1) RH7777 cells were transfected with the cDNA constructs encoding human Edg-2, Edg-4, or Edg-7 and then were subcloned into the pCDNA3 expression vector using the Cytofectene transfection reagent according to the manufacturers' protocol. Transfected cells were selected in DMEM containing 10% FBS and 1 mg/ml geneticin. Resistant cells were collected and subcloned by limiting dilution. The resulting clones were then screened using functional assays and RT-PCR analysis. Data are representative of three individual clones.

PSP24 PLGFR = PSP24 PLGFR (Xenopus laevis, UniProt P79945); assay: Xenopus oocyte assay: LPA-induced oscillatory chloride currents (two-electrode voltage clamp); type: cell-based
Sequence of PSP24 PLGFR (P79945 whole entry): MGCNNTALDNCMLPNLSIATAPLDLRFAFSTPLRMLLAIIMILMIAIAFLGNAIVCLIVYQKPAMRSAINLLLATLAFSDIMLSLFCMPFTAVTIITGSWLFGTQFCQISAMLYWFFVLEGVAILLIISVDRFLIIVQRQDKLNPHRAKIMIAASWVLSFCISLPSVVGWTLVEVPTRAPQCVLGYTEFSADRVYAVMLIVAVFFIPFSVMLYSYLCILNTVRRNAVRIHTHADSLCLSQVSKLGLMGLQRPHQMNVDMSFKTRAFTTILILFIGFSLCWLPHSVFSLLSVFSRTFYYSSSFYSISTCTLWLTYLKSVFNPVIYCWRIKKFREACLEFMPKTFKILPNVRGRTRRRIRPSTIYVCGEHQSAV
Method: Xenopus oocytes which endogenously express PSP24 PLGFR were used to screen the newly designed and synthesized compounds for their LPA inhibitory activity.
(§2) Oocytes were obtained from xylazine-anesthetized adult Xenopus laevis frogs (Carolina Scientific, Burlington, N.C.) under aseptic conditions and prepared for experiment. […] Oocytes were kept in Barth's solution in an incubator between 17-20° C. and were used for 2-7 days after isolation.
Electrophysiological recordings were carried out using a standard two-electrode voltage-clamp amplifier holding the membrane potential at −60 mV (GeneClamp 500, Axon Instruments, Calif.). […] Membrane currents were recorded with a NIC-310 digital oscilloscope (Nicolet, Madison, Wis.). Applications were made at intervals of 15 mins (minimum) to allow for the appropriate washout and recovery from desensitization.
as §2
Electrophysiological recordings were carried out using a standard two-electrode voltage-clamp amplifier holding the membrane potential at −60 mV (GeneClamp 500, Axon Instruments, CA). […] Membrane currents were recorded with a NIC-310 digital oscilloscope (Nicolet, Madison, Wis.). Applications were made at intervals of 15 mins (minimum) to allow for the appropriate washout and recovery from desensitization.

NIH3T3 cells [1] = system: NIH3T3 cells
Method: Data points from the intracellular Ca^2+ measurements represent the total peak area of the Ca^2+ transients elicited, as determined by the FLWinLab software (Perkin-Elmer, Wellesley, Mass.). Data points represent the average of at least 3 measurements±standard deviation. The significance of the data points was determined using the students t-test and values were considered significant at p<0.05.
The effect of DGPP 8:0 on LPA-elicited responses was also examined in mammalian systems that endogenously express LPA receptors. NIH3T3 cells were screened by RT-PCR for the presence of mRNA for the Edg and PSP24 receptors.

NIH3T3 cells [2] = assay: LPA-elicited proliferation of NIH3T3 cells (cell counting); type: cell-based
Method: Proliferation of NIH3T3 cells was assessed by direct cell counting as previously described (Tigyi et al., 1999). NIH3T3 cells were plated in 24-well plates at a density of 10,000 cells/well, in DMEM containing 10% FBS. The following day, the cells were rinsed and serum starved in DMEM for 6 hr. Lipids were then added for 24 hr. Cell numbers were determined by counting in a Coulter counter (Coulter Electronics, Hialeah, Fla.).

HEY ovarian cancer cells = assay: Ca2+ responses in HEY ovarian cancer cells; type: cell-based; conditions: 100 nM LPA 18:1 mixed with 1 μM lipid
Source text: Likewise, PA 8:0 inhibited the Ca^2+ response to 6% of control, whereas PA 18:1 had no effect. HEY express mRNA transcripts for Edg-1, -2, -5, -7 receptors (FIG. 34C).

human Edg-4 = molecular target: T2, human Edg-4 (Homo sapiens, UniProt Q9HBW0); assay: Ca2+ responses (Fura-2) in RH7777 cells expressing Edg-4 (stable or transient); type: cell-based; conditions: 100 nM LPA 18:1 and 1 μM DGPP 8:0
T2 construct: expressed in transfected cells
T2 sequence (Q9HBW0 whole entry): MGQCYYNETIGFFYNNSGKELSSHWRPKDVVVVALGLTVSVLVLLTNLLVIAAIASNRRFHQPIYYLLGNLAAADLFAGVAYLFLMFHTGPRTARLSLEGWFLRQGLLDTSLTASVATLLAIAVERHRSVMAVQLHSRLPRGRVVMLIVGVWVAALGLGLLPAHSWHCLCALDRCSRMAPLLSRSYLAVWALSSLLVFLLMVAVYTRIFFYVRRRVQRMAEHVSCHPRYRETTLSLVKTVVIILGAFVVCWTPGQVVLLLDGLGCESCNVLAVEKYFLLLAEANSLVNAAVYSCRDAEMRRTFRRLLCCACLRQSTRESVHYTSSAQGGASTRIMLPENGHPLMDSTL
Source text: RH7777 cells, stably expressing human Edg-4, were kindly provided by Dr. Kevin Lynch (University of Virginia, Charlottesville, Va.). Flag-tagged cDNA's encoding human Edg-4 and -7 inserted into the pCDNA3 expression plasmid (Invitrogen, Carlsbad, Calif.), were a generous gift from Dr. Junken Aoki (University of Tokyo, Tokyo, Japan). RH7777 and NIH3T3 cells were obtained from the American Type Culture Collection (Manassas, Va.). HEY cells were provided by Dr. Lisa Jennings (University of Tennessee, Memphis). All cell lines were maintained in Dulbecco's Modified Eagle's Medium (DMEM) containing 10% FBS and 2 mM glutamine. Oocytes were obtained from adult Xenopus laevis frogs as previously described (Tigyi et al., 1999).
as §1
RH7777 cells were plated on polylysine-coated glass coverslips (Bellco, Vineland, N.J.) one day prior to transfection. The following day, cells were transfected overnight (16-18 hr) with 1 μg of plasmid DNA mixed with 6 μl of Cytofectene. The cells were then rinsed twice with DMEM and cultured in DMEM containing 10% FBS. The next day, the cells were rinsed with DMEM and serum was withdrawn for a minimum of 2 hr prior to monitoring intracellular Ca^2+.

[3] = system: G-protein coupled receptors for serotonin; conditions: oocytes injected with rat brain polyA+ mRNA
Source text: (§3) To show the specificity of DGPP 8:0 for the LPA receptors expressed in the oocyte, the expression of neurotransmitter receptors was induced by the injection of polyA+ mRNA from rat brain.

[4] = system: G-protein coupled receptors for acetycholine; conditions: oocytes injected with rat brain polyA+ mRNA
Source text: as §3

human Edg-7 = molecular target: T3, human Edg-7 (Homo sapiens, UniProt Q9UBY5); assay: Ca2+ responses (Fura-2) in RH7777 cells expressing Edg-7; type: cell-based
T3 construct: Flag; expressed in transfected cells
T3 sequence (Q9UBY5 1-353): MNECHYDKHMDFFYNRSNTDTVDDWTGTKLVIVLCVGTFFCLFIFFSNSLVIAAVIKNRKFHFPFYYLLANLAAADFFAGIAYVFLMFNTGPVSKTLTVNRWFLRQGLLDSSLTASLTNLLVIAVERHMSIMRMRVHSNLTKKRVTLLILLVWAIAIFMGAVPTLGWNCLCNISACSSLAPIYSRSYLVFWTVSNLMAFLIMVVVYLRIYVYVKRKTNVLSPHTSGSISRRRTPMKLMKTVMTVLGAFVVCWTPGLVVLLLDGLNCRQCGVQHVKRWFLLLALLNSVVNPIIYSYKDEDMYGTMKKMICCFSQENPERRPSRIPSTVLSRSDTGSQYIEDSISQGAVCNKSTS
Method: as §1

[5] = 10-fold excess: 100 nM LPA 18:1 and 1 μM DGPP 8:0
[6] = LPA constant at its EC50 (250 nM LPA 18:1), read-out: IC50, inhibition of LPA-elicited Ca2+ responses

T1 sequence (Q92633 whole entry): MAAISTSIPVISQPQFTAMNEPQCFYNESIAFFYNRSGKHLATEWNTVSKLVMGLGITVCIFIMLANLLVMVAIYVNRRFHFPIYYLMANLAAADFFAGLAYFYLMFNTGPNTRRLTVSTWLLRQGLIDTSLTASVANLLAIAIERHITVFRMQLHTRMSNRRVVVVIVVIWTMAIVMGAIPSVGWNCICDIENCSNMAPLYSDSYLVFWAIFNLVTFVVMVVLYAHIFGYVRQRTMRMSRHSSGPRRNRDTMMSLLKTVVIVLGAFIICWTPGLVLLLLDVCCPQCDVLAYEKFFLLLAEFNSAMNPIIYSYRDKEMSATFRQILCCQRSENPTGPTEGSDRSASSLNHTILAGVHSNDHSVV

CCCCCCCC(=O)OC[C@H](COP(=O)(O)OP(=O)(O)O)OC(=O)CCCCCCC [DGPP 8:0, diacylglycerol pyrophosphate]
Ca2+ response, % of control (human Edg-2; 250 nM LPA 18:1 mixed with 10 μM lipid): 50 % of control | inhibition of LPA-elicited Ca2+ responses (human Edg-2; [5]): approximately 50% | IC50 (human Edg-2; [6]): 11 ± 0.68 µM | mechanism of inhibition (shift of LPA dose response curve) (human Edg-2; constant DGPP 8:0, 3 μM): competitive | LPA response with compound applied extracellularly (PSP24 PLGFR; 5 nM LPA 18:1 and 1 μM DGPP 8:0): completely inhibited | IC50 (PSP24 PLGFR; 5 nM LPA 18:1 mixed with increasing DGPP 8:0, read-out: IC50, inhibition of Ca2+-mediated inward Cl- currents elicited by LPA): 0.096 ± 0.021 µM | mechanism of action (shift of LPA 18:1 dose response curve) (PSP24 PLGFR; 200 nM DGPP 8:0): competitive | reversibility of inhibition of LPA-induced chloride currents (PSP24 PLGFR; after washing the oocyte): reversible | LPA response after intracellular injection of compound (PSP24 PLGFR; intracellular injection, estimated >300 nM, extracellular 5 nM LPA 18:1): elicited a response equal in size to that of the control | effect on LPA-elicited Ca2+ responses (NIH3T3 cells [1]; 100 nM LPA in the presence of 10 μM DGPP 8:0): significantly inhibited | effect on S1P-elicited Ca2+ response (NIH3T3 cells [1]; 100 nM S1P in the presence of 10 μM DGPP 8:0): not effected | inhibition of the Ca2+ responses (NIH3T3 cells [1]; 100-fold excess over LPA): 40% | effect on LPA-induced proliferation (NIH3T3 cells [2]; 5 μM LPA 18:1 mixed with 10 μM lipid, 24 hr): significantly inhibited | effect on solvent-treated control cells (NIH3T3 cells [2]; 10 μM lipid, solvent (BSA) in place of LPA 18:1, 24 hr): had no effect | LPA-elicited Ca2+ response, % of control (HEY ovarian cancer cells): 12 % of control | effect on LPA-elicited Ca2+ responses (human Edg-4; stable Edg-4): unaffected | effect on LPA-elicited Ca2+ responses (human Edg-4; transient Edg-4): not effected | inhibition of serotonin-elicited responses [3]: did not inhibit | inhibition of carbachol-elicited responses [4]: did not inhibit | inhibition of the Ca2+ responses (human Edg-7; 250 nM LPA 18:1 mixed with 500 nM lipid): 50% | effect on LPA-elicited Ca2+ responses (human Edg-7; [5]): completely abolished | IC50 (human Edg-7; [6]): 0.285 ± 0.028 µM | mechanism of inhibition (shift of LPA dose response curve) (human Edg-7; constant DGPP 8:0, 250 nM): competitive
